Test systems include UACC-62; KM12; SR; A498; SNB-75; OVCAR-4; OVCAR-8; ACHN; HT-29; KM-20L2; UO-31; RPMI-8226; UACC-257; HCT-116; SK-MEL-2; CAKI-1; 786-0; Hs-578T; NCI/ADR-RES; PC-3.
What all share (assay): NCI anticancer screen, dose series, 48 h

Results on six compounds are retold here after ChEMBL document CHEMBL1201862, “PubChem BioAssay data set” (2004).

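In this assay, cells in 96-well plates receive the compound at five concentrations for 48 hours. Endpoints are linearly interpolated between the surrounding concentrations. GI50: concentration for 50% inhibition of growth.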 Active and inactive are the calls of the source. Cut-off read from the data, not from the text of the source: active = GI50 up to about 1.1 µM and inactive = higher.

As to `Clc1cc2n[se]nc2cc1Cl`, the GI50 in the experiment with UACC-62 was > 100 µM (inactive); with KM12 it was > 100 µM (inactive); in the experiment on SR, > 100 µM (inactive); in the experiment on A498 it was > 100 µM (inactive); in the experiment with SNB-75, 36.1 µM (inactive); in the experiment on OVCAR-4 it was > 100 µM (inactive). Further, the GI50 in the experiment on OVCAR-8, in the experiment with ACHN, in the experiment with HT-29, in the experiment on KM-20L2, in the experiment with UO-31 and in the experiment on RPMI-8226 was > 100 µM (inactive) in each case. Also, the GI50 in the experiment on UACC-257, in the experiment on HCT-116, with SK-MEL-2, with CAKI-1 and with 786-0 was > 100 µM (inactive) each time.
Regarding `C1COCCN1.S=C(S)N1CCOCC1`, the GI50 is 3.8 µM (inactive) in the experiment on UACC-62; 20.1 µM (inactive) with KM12; 1.04 µM (active) in the experiment on SR; > 100 µM (inactive) in the experiment on Hs-578T; 24.9 µM (inactive) with A498; 7.08 µM (inactive) with SNB-75. For the same compound, the GI50 was > 100 µM (inactive) in the experiment with NCI/ADR-RES; 6.9 µM (inactive) in the experiment with OVCAR-4; > 100 µM (inactive) in the experiment on OVCAR-8; > 100 µM (inactive) in the experiment on ACHN; 0.811 µM (active) in the experiment with HT-29; > 100 µM (inactive) in the experiment on PC-3. In addition, the GI50 is 1.43 µM (inactive) in the experiment on KM-20L2; > 100 µM (inactive) in the experiment with UO-31; 1.4 µM (inactive) with RPMI-8226; 4.68 µM (inactive) with UACC-257; 2.12 µM (inactive) with HCT-116; 36.4 µM (inactive) in the experiment on SK-MEL-2. The GI50 in the experiment with CAKI-1 was 5.51 µM (inactive); in the experiment on 786-0, 10.1 µM (inactive).
In the case of `CCCC(N)C(=O)c1ccccc1` (stereo not drawn), the GI50 in the experiment with UACC-62, with KM12, with SR, in the experiment on A498, in the experiment with SNB-75 and in the experiment with OVCAR-4 was > 100 µM (inactive) in each case. Besides, the GI50 in the experiment with OVCAR-8, with ACHN, in the experiment with HT-29, in the experiment with KM-20L2, in the experiment on UO-31 and in the experiment on RPMI-8226 was > 100 µM (inactive) throughout. For the same compound, the GI50 in the experiment on UACC-257, in the experiment with HCT-116, in the experiment with SK-MEL-2, in the experiment on CAKI-1 and in the experiment with 786-0 was > 100 µM (inactive) each time.
As to `COC1=C(NC(C)=O)C(=O)c2nc3n(c2C1=O)CCC3`, the GI50 was 18.2 µM (inactive) in the experiment on UACC-62; 25.7 µM (inactive) in the experiment on KM12; 36.9 µM (inactive) in the experiment on SR; 30.8 µM (inactive) in the experiment on Hs-578T; 23.6 µM (inactive) in the experiment on A498; 17.6 µM (inactive) with SNB-75. Moreover, the GI50 with NCI/ADR-RES was 19.5 µM (inactive); in the experiment with OVCAR-4, 16.7 µM (inactive); in the experiment with OVCAR-8, 16.7 µM (inactive); in the experiment on ACHN it was 19.9 µM (inactive); with HT-29, 26.5 µM (inactive); in the experiment on PC-3 it was 34.8 µM (inactive). The GI50 in the experiment on KM-20L2 was 38.3 µM (inactive); with UO-31, 24.9 µM (inactive); in the experiment on RPMI-8226, 24.4 µM (inactive); in the experiment with UACC-257 it was 16.6 µM (inactive); in the experiment with HCT-116, 15.7 µM (inactive); with SK-MEL-2, 17.7 µM (inactive). Moreover, the GI50 is 18.3 µM (inactive) in the experiment with CAKI-1 and 19.5 µM (inactive) in the experiment on 786-0.
Regarding `Nc1ccc(C(=O)O)c2[nH]c3ccccc3c(=O)c12`, the GI50 in the experiment with UACC-62 is > 100 µM (inactive); in the experiment with KM12, > 100 µM (inactive); in the experiment with SR, > 100 µM (inactive); in the experiment on A498 it was > 100 µM (inactive); in the experiment with SNB-75, 31.9 µM (inactive); with OVCAR-4, > 100 µM (inactive). Moreover, the GI50 with OVCAR-8, in the experiment on ACHN, with HT-29, in the experiment on KM-20L2, with UO-31 and with RPMI-8226 was > 100 µM (inactive) in each case. Moreover, the GI50 in the experiment on UACC-257, in the experiment on HCT-116, in the experiment on SK-MEL-2, in the experiment with CAKI-1 and with 786-0 was > 100 µM (inactive) throughout.
For `COCOCC[C@@H]1CC=CC(NC(=O)OCc2ccccc2)C1/C=C/C(=O)CCC1OCCO1` (stereo partly drawn), the GI50 with UACC-62 was 25.5 µM (inactive); in the experiment on KM12 it was 18.8 µM (inactive); with SR, 3.79 µM (inactive); with A498, 71.1 µM (inactive); in the experiment on SNB-75, 28.8 µM (inactive); in the experiment on OVCAR-4 it was 29 µM (inactive). Besides, the GI50 in the experiment on OVCAR-8 is 19.1 µM (inactive); in the experiment with ACHN it was 36.6 µM (inactive); with HT-29, 38.9 µM (inactive); with KM-20L2, 34.9 µM (inactive); in the experiment with UO-31 it was 46.6 µM (inactive); with RPMI-8226 it was 26.1 µM (inactive). The GI50 in the experiment on UACC-257 was 25.4 µM (inactive); in the experiment on HCT-116, 17.7 µM (inactive); in the experiment on SK-MEL-2, 25.4 µM (inactive); with CAKI-1 it was 44.2 µM (inactive); in the experiment on 786-0 it was 48.4 µM (inactive).
